The values that follow come from US20230017045A1, “PYRIDINE AND PYRIMIDINE CARBOXYLATE HERBICIDES AND METHODS OF USE THEREOF” (Dow AgroSciences LLC, priority 2017, published 2023).

This assay deals with test plant species. The assay can be described thus: Post-emergent herbicidal activity test (greenhouse, foliar spray, visual growth reduction). The format is in vivo. Conditions: post-emergence, 336 h, 140 g ai/ha. An outline of the steps:
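Visual percent injury (0-100) rated 14 d after treatment, relative to nontreated and solvent-blank plants. Test plants at first or second true leaf stage received an overhead track-sprayer application at 187 L/ha. Compounds were formulated in aqueous acetone/DMSO carrier containing crop oil concentrate and X-77 surfactant.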

[1] abbreviates: ECHCG: barnyardgrass (Echinochloa crus-galli), 14 days after application, read-out: Visual Growth Reduction (%) 14 Days After Application, ECHCG.
Where [2] appears, read: IPOHE: ivy-leaf morning glory (Ipomoea hederacea), 14 days after application, read-out: Visual Growth Reduction (%) 14 Days After Application, IPOHE.
The mark [3] stands for this setting: KCHSC: kochia (Bassia scoparia), 14 days after application, read-out: Visual Growth Reduction (%) 14 Days After Application, KCHSC.
Setting [4] is: ORYSA: rice (Oryza sativa), 14 days after application, read-out: Visual Growth Reduction (%) 14 Days After Application, ORYSA.
Setting [5] is: SETFA: giant foxtail (Setaria faberi), 14 days after application, read-out: Visual Growth Reduction (%) 14 Days After Application, SETFA.
[6] abbreviates: SORVU: grain sorghum (Sorghum vulgare), 14 days after application, read-out: Visual Growth Reduction (%) 14 Days After Application, SORVU.
Setting [7] is: STEME: common chickweed (Stellaria media), 14 days after application, read-out: Visual Growth Reduction (%) 14 Days After Application, STEME.
Setting [8] is: TRZAS: wheat, spring (Triticum aestivum), 14 days after application, read-out: Visual Growth Reduction (%) 14 Days After Application, TRZAS.
[9] abbreviates: blackgrass (Alopecurus myosuroides), 14 Days After Application, read-out: Visual Growth Reduction (%) ALOMY.
Where [10] appears, read: canada thistle (Cirsium arvense), 14 Days After Application, read-out: Visual Growth Reduction (%) CIRAR.
The mark [11] stands for this setting: crabgrass (Digitaria sanguinalis), 14 Days After Application, read-out: Visual Growth Reduction (%) DIGSA.
The mark [12] stands for this setting: lambsquarters (Chenopodium album), 14 Days After Application, read-out: Visual Growth Reduction (%) CHEAL.
The mark [13] stands for this setting: redroot pigweed (Amaranthus retroflexus), 14 Days After Application, read-out: Visual Growth Reduction (%) AMARE.
Setting [14] is: wild oat (Avena fatua), 14 Days After Application, read-out: Visual Growth Reduction (%) AVEFA.
Setting [15] is: yellow nutsedge (Cyperus esculentus), 14 Days After Application, read-out: Visual Growth Reduction (%) CYPES.

Where two headings read alike, the source gives them in different places.

Consider `COC(=O)c1nc(-c2ccc(C(F)F)cc2)ncc1Cl` [F319, Methyl 5-chloro-2-(4-(difluoromethyl)phenyl)pyrimidine-4-carboxylate], for which the pest or weed control at 140 g/ha under setting [1] is 0 to 29%; the pest or weed control at 140 g/ha under setting [2] fell in the range of 30 to 44%; the pest or weed control at 140 g/ha under setting [3] was 0 to 29%; the pest or weed control at 140 g/ha under setting [4] lay in the range of 0 to 29%; the pest or weed control at 140 g/ha under setting [5] was 0 to 29%; the pest or weed control at 140 g/ha under setting [6] fell in the range of 0 to 29%. Also, the pest or weed control at 140 g/ha runs as follows: under setting [7], 0 to 29%; under setting [8], 0 to 29%; under setting [9], 0 to 29%; under setting [10], 0 to 29%; under setting [11], 0 to 29%; under setting [12], 30 to 44%. Also, the pest or weed control at 140 g/ha by setting is: under setting [13], 0 to 29%; under setting [14], 0 to 29%; under setting [15], 0 to 29%.

In the case of `COC(=O)c1nc(-c2ccc3cc[nH]c3c2)c(F)cc1Cl` [F320, Methyl 3-chloro-5-fluoro-6-(1H-indol-6-yl)picolinate], the pest or weed control at 140 g/ha by setting is: under setting [1], 0 to 29%; under setting [2], 60 to 74%; under setting [3], 0 to 29%; under setting [4], 0 to 29%; under setting [5], 0 to 29%; under setting [6], 0 to 29%. Moreover, the pest or weed control at 140 g/ha reads like this: under setting [7], 0 to 29%; under setting [8], 0 to 29%; under setting [9], 0 to 29%; under setting [10], 30 to 44%; under setting [11], 0 to 29%; under setting [12], 60 to 74%. In addition, the pest or weed control at 140 g/ha reads like this: under setting [13], 0 to 29%; under setting [14], 0 to 29%; under setting [15], 0 to 29%.

Take `COC(=O)c1nc(-c2cc(C#N)c(C(F)(F)F)cc2Cl)c(F)cc1Cl` [F321, Methyl 3-chloro-6-(2-chloro-5-cyano-4-(trifluoromethyl)phenyl)-5-fluoropicolinate]: the pest or weed control at 140 g/ha lay in the range of 30 to 44% under setting [1]; 85 to 94% under setting [2]; 0 to 29% under setting [3]; 0 to 29% under setting [4]; 75 to 84% under setting [5]; 95 to 100% under setting [6]. Besides, the pest or weed control at 140 g/ha by setting is: under setting [7], 0 to 29%; under setting [8], 30 to 44%; under setting [9], 0 to 29%; under setting [10], 75 to 84%; under setting [11], 85 to 94%; under setting [12], 95 to 100%. Moreover, the pest or weed control at 140 g/ha is, setting by setting: under setting [13], 30 to 44%; under setting [14], 75 to 84%; under setting [15], 0 to 29%.

Take `COC(=O)c1nc(-c2cc([N+](=O)[O-])c(C(F)(F)F)cc2Cl)c(F)cc1Cl` [F322, Methyl 3-chloro-6-(2-chloro-5-nitro-4-(trifluoromethyl)phenyl)-5-fluoropicolinate]: the pest or weed control at 140 g/ha reads like this: under setting [1], 0 to 29%; under setting [2], 95 to 100%; under setting [3], 0 to 29%; under setting [4], 0 to 29%; under setting [5], 0 to 29%; under setting [6], 0 to 29%. In addition, the pest or weed control at 140 g/ha is 0 to 29% under setting [7]; 0 to 29% under setting [8]; 0 to 29% under setting [9]; 30 to 44% under setting [10]; 0 to 29% under setting [11]; 75 to 84% under setting [12]. Also, the pest or weed control at 140 g/ha reads like this: under setting [13], 60 to 74%; under setting [14], 0 to 29%; under setting [15], 0 to 29%.

Consider `COC(=O)c1nc(-c2cc(F)c(C(F)(F)F)cc2F)ccc1Cl` [F323, Methyl 3-chloro-6-(2,5-difluoro-4-(trifluoromethyl)phenyl)picolinate], for which the pest or weed control at 140 g/ha reads like this: under setting [1], 0 to 29%; under setting [2], 95 to 100%; under setting [3], 30 to 44%; under setting [4], 0 to 29%; under setting [5], 30 to 44%; under setting [6], 85 to 94%. Besides, the pest or weed control at 140 g/ha reads like this: under setting [7], 0 to 29%; under setting [8], 0 to 29%; under setting [9], 0 to 29%; under setting [10], 45 to 59%; under setting [11], 75 to 84%; under setting [12], 85 to 94%. Further, the pest or weed control at 140 g/ha reads like this: under setting [13], 75 to 84%; under setting [14], 0 to 29%; under setting [15], 45 to 59%.

As for `COC(=O)c1nc(-c2cc(F)c(C(F)(F)F)cc2F)c(F)cc1Cl` [F324, Methyl 3-chloro-6-(2,5-difluoro-4-(trifluoromethyl)phenyl)-5-fluoropicolinate], the pest or weed control at 140 g/ha was in the range of 0 to 29% under setting [1]; 95 to 100% under setting [2]; 85 to 94% under setting [3]; 0 to 29% under setting [4]; 60 to 74% under setting [5]; 75 to 84% under setting [6]. Further, the pest or weed control at 140 g/ha under setting [7] was in the range of 0 to 29%; the pest or weed control at 140 g/ha under setting [8] is 45 to 59%; the pest or weed control at 140 g/ha under setting [9] fell in the range of 30 to 44%; the pest or weed control at 140 g/ha under setting [11] lay in the range of 95 to 100%; the pest or weed control at 140 g/ha under setting [12] lay within 85 to 94%; the pest or weed control at 140 g/ha under setting [13] lay in the range of 95 to 100%. The pest or weed control at 140 g/ha under setting [14] was in the range of 30 to 44% and the pest or weed control at 140 g/ha under setting [15] is 60 to 74%.

On to `COC(=O)c1nc(-c2cc(F)c(C(F)(F)F)cc2F)c(Cl)cc1Cl` [F325, Methyl 3,5-dichloro-6-(2,5-difluoro-4-(trifluoromethyl)phenyl)picolinate], for which the pest or weed control at 140 g/ha under setting [1] lay within 0 to 29%; the pest or weed control at 140 g/ha under setting [2] fell in the range of 95 to 100%; the pest or weed control at 140 g/ha under setting [3] lay within 0 to 29%; the pest or weed control at 140 g/ha under setting [4] was 0 to 29%; the pest or weed control at 140 g/ha under setting [5] lay in the range of 30 to 44%; the pest or weed control at 140 g/ha under setting [6] lay within 85 to 94%. The pest or weed control at 140 g/ha was in the range of 0 to 29% under setting [7]; 0 to 29% under setting [8]; 0 to 29% under setting [9]; 85 to 94% under setting [10]; 75 to 84% under setting [11]; 95 to 100% under setting [12]. Further, the pest or weed control at 140 g/ha is, setting by setting: under setting [13], 60 to 74%; under setting [14], 0 to 29%; under setting [15], 0 to 29%.

On to `COC(=O)c1nc(-c2cc(C#N)c(C(F)(F)F)cc2Cl)ccc1Cl` [F326, Methyl 3-chloro-6-(2-chloro-5-cyano-4-(trifluoromethyl)phenyl)picolinate], for which the pest or weed control at 140 g/ha runs as follows: under setting [1], 75 to 84%; under setting [2], 0 to 29%; under setting [3], 0 to 29%; under setting [4], 0 to 29%; under setting [5], 30 to 44%; under setting [6], 95 to 100%. In addition, the pest or weed control at 140 g/ha under setting [7] was in the range of 0 to 29%; the pest or weed control at 140 g/ha under setting [8] lay in the range of 0 to 29%; the pest or weed control at 140 g/ha under setting [9] was 0 to 29%; the pest or weed control at 140 g/ha under setting [10] fell in the range of 45 to 59%; the pest or weed control at 140 g/ha under setting [11] fell in the range of 75 to 84%; the pest or weed control at 140 g/ha under setting [12] fell in the range of 60 to 74%. For the same molecule, the pest or weed control at 140 g/ha reads like this: under setting [13], 0 to 29%; under setting [14], 0 to 29%; under setting [15], 0 to 29%.

Regarding `COC(=O)c1nc(-c2cc3nonc3cc2F)c(Cl)cc1Cl` [F327, Methyl 3,5-dichloro-6-(6-fluorobenzo[c][1,2,5]oxadiazol-5-yl)picolinate], the pest or weed control at 140 g/ha is, setting by setting: under setting [1], 0 to 29%; under setting [2], 75 to 84%; under setting [3], 0 to 29%; under setting [4], 0 to 29%; under setting [5], 30 to 44%; under setting [6], 0 to 29%. Besides, the pest or weed control at 140 g/ha was in the range of 0 to 29% under setting [7]; 0 to 29% under setting [8]; 0 to 29% under setting [9]; 0 to 29% under setting [10]; 0 to 29% under setting [11]; 30 to 44% under setting [12]. In addition, the pest or weed control at 140 g/ha lay within 30 to 44% under setting [13], 0 to 29% under setting [14] and 0 to 29% under setting [15].
